Reference: patent publication US6403533B2, “Stabilized microbicide formulation” (Rohm and Haas Company, priority 2000, dated 2002)

assay: Visual examination for brown precipitate formation upon storage of dilute aqueous CMI/MI solutions; type: physicochemical; settings: storage at 55 °C, 30 ppm copper ion
Experimental: An advantage of the compositions of the present invention is that they are both physically and chemically stable as prepared and upon storage. […] By “physically stable” we mean that the compositions are fluid and show no visible brown precipitate formation after storage for at least 4 weeks at 55° C., and preferably for at least 8 weeks at 55° C. By “chemically stable” is meant that the 3-isothiazolone, particularly the CMI compound, retains at least 60%, preferably at least 70% and more preferably at least 80%, of its original concentration in the dilute solution composition after storage for at least 4 weeks at 55° C., and preferably for at least 8 weeks at 55° C.
Some embodiments of the invention are described in detail in the following Examples. All ratios, parts and percentages are expressed by weight unless otherwise specified, and all reagents used are of good commercial quality unless otherwise specified. The level of copper is reported in ppm as the level of cupric ion. Samples were considered stable when the samples were free of brown precipitate after being stored at least 4 weeks, and preferably at least 8 weeks, at 55° C. Abbreviations used in the Examples and Tables are listed below with the corresponding descriptions.
The samples tested were prepared by adding known amounts of 3-isothiazolone, copper sulfate pentahydrate, water-soluble organic solvent and DI water to a 100-ml glass jar equipped with a magnetic stir bar. The 3-isothiazolone used was an approximate 3:1 (weight/weight) mixture of CMI and MI (98% purity). Ingredients were combined in a manner to provide test solutions containing 1.5% of the 3-isothiazolone (1.53 g per 100 g total solution), 30 ppm copper ion (0.0118 g copper sulfate pentahydrate per 100 g total solution) and various concentrations of water-soluble organic solvent (0 g, 1 g, 5 g, 10 g, 25 g and 50 g per 100 g total solution, corresponding to 0%, 1%, 5%, 10%, 25% or 50% solvent, respectively); the remainder of the solution (to 100 g total) was made up with DI water. Each sample was stirred until all solids were dissolved; portions (approximately 10 g) were then transferred to 20-ml glass vials and stored at room temperature or in an oven at 55° C. The samples were visually examined at various time points to determine the formation of brown precipitate and analyzed by HPLC/UV detection to determine the amount of CMI remaining; in all cases the amount of remaining MI was unchanged (100% of original value).

Row | Structure (SMILES) | stabilizing effect of the solvent regarding prevention of brown precipitate formation (in words)
1 | CCO [ethanol, Ethanol] | effective stabilizing solvents at use levels above 1%
2 | CCOC(C)=O [ethyl acetate, Ethyl Acetate] | effective stabilizing solvents at use levels above 1%
3 | CC(O)CO (stereo not shown) [PG, Propylene Glycol (1,2-Propanediol)] | effective stabilizing solvent above levels of 1%
4 | OCCCCCO [1,5-pentanediol, 1,5-Pentandiol (Pentamethylene Glycol)] | effective stabilizing solvents at use levels above 1%
